Test results from US20230139445A1, “BACTERIAL CELLS WITH IMPROVED TOLERANCE TO DIACIDS” (priority 2016, published 2023).
Where two headings read alike, the source gives them in different places.

What was measured:
[1] = system: Escherichia coli K-12 MG1655 and evolved isolates; assay type: cell-based; conditions: 45 g/L itaconic acid
Procedure, shortened: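 Wild-type MG1655 and evolved isolates, precultured overnight in M9 + 1% glucose at 37 °C, were diluted into M9 + 1% glucose. Growth at 37 °C, 225 rpm, scanned every 15 min; pixel values calibrated to OD600. Diacids tested as sodium salts or neutralized to pH 7.0.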

[2] = system: Escherichia coli K-12 MG1655; test: Growth of K-12 MG1655 in varying concentrations of fumaric, itaconic, malic and succinic acid, Growth Profiler; assay type: cell-based
Protocol: Five colonies from wild-type K-12 MG1655 and 10 individual colonies deriving from each population were inoculated into 300 μL M9+1% glucose in 96 well deepwell plates and incubated in a 300 rpm plate shaker at 37° C. The next day, cells were diluted 10× in M9+1% glucose and 30 μL was transferred into clear-bottomed 96 well half-deepwell plates (with rectangular wells) containing M9+1% glucose and M9+1% glucose+52.78 g/L glutaric acid or 55.56 g/L adipic acid, such that the final concentration of glutaric acid or adipic acid was 47.5 g/L or 50 g/L, respectively. In addition, cryogenic glycerol stocks of the overnight culture were saved in a 96 well plate format. Half deepwell plates were incubated at 37° C. with 225 rpm shaking in a Growth Profiler (Enzyscreen), with optical scans of the plates taken at 15 minute intervals. Green pixel values integrated over a 1 mm diameter circular area in each well were converted to OD600 values using a previously determined calibration between OD600 and green pixel values.
Additionally, each evolved isolate was tested for cross-tolerance toward other dicarboxylic acids of interest. […] All diacids tested were either the neutral sodium salts, or the free diacid was neutralized with sodium hydroxide to pH 7.0 for testing.

C=C(CC(=O)O)C(=O)O [itaconic acid]
growth rate μ (mean) ([1]; strain ADIP1-1): 0.466 h⁻¹ | lag time tlag (mean) ([1]; strain ADIP1-1): 8.3 h | growth rate μ (mean) ([1]; strain ADIP1-9): 0.434 h⁻¹ | lag time tlag (mean) ([1]; strain ADIP1-9): 8.7 h | growth rate μ (mean) ([1]; strain ADIP2-5): 0.440 h⁻¹ | lag time tlag (mean) ([1]; strain ADIP2-5): 8.3 h | growth rate μ (mean) ([1]; strain ADIP2-6): 0.470 h⁻¹ | lag time tlag (mean) ([1]; strain ADIP2-6): 8.2 h | growth rate μ (mean) ([1]; strain ADIP2-10): 0.438 h⁻¹ | lag time tlag (mean) ([1]; strain ADIP2-10): 8.3 h | growth rate μ (mean) ([1]; strain ADIP3-2): 0.459 h⁻¹ | lag time tlag (mean) ([1]; strain ADIP3-2): 7.9 h | growth rate μ (mean) ([1]; strain ADIP3-4): 0.451 h⁻¹ | lag time tlag (mean) ([1]; strain ADIP3-4): 8.4 h | growth rate μ (mean) ([1]; strain ADIP3-8): 0.433 h⁻¹ | lag time tlag (mean) ([1]; strain ADIP3-8): 8.5 h | growth rate μ (mean) ([1]; strain ADIP4-1): 0.339 h⁻¹ | lag time tlag (mean) ([1]; strain ADIP4-1): 11.2 h | growth rate μ (mean) ([1]; strain ADIP4-8): 0.326 h⁻¹ | lag time tlag (mean) ([1]; strain ADIP4-8): 10.4 h | growth rate μ (mean) ([1]; strain ADIP5-2): 0.354 h⁻¹ | lag time tlag (mean) ([1]; strain ADIP5-2): 9.4 h | growth rate μ (mean) ([1]; strain ADIP5-6): 0.527 h⁻¹ | lag time tlag (mean) ([1]; strain ADIP5-6): 7.2 h | growth rate μ (mean) ([1]; strain ADIP6-3): 0.327 h⁻¹ | lag time tlag (mean) ([1]; strain ADIP6-3): 9.9 h | growth rate μ (mean) ([1]; strain ADIP6-9): 0.337 h⁻¹ | lag time tlag (mean) ([1]; strain ADIP6-9): 10.3 h | growth rate μ (mean) ([1]; strain ADIP6-10): 0.343 h⁻¹ | lag time tlag (mean) ([1]; strain ADIP6-10): 9.1 h | growth rate μ (mean) ([1]; strain ADIP7-2): 0.342 h⁻¹ | lag time tlag (mean) ([1]; strain ADIP7-2): 7.9 h | growth rate μ (mean) ([1]; strain ADIP7-5): 0.402 h⁻¹ | lag time tlag (mean) ([1]; strain ADIP7-5): 8.6 h | growth rate μ (mean) ([1]; strain ADIP8-3): 0.308 h⁻¹ | lag time tlag (mean) ([1]; strain ADIP8-3): 11.7 h | growth rate μ (mean) ([1]; strain ADIP8-7): 0.235 h⁻¹ | lag time tlag (mean) ([1]; strain ADIP8-7): 12.5 h | growth rate μ (mean) ([1]; strain ADIP8-10): 0.290 h⁻¹ | lag time tlag (mean) ([1]; strain ADIP8-10): 11.3 h | growth rate μ (mean) ([1]; strain GLUT1-3): 0.454 h⁻¹ | lag time tlag (mean) ([1]; strain GLUT1-3): 10.2 h | growth rate μ (mean) ([1]; strain GLUT1-9): 0.446 h⁻¹ | lag time tlag (mean) ([1]; strain GLUT1-9): 10.4 h | growth rate μ (mean) ([1]; strain GLUT1-10): 0.446 h⁻¹ | lag time tlag (mean) ([1]; strain GLUT1-10): 18.1 h | growth rate μ (mean) ([1]; strain GLUT2-1): 0.385 h⁻¹ | lag time tlag (mean) ([1]; strain GLUT2-1): 10.8 h | growth rate μ (mean) ([1]; strain GLUT2-9): 0.415 h⁻¹ | lag time tlag (mean) ([1]; strain GLUT2-9): 9.0 h | growth rate μ (mean) ([1]; strain GLUT2-10): 0.494 h⁻¹ | lag time tlag (mean) ([1]; strain GLUT2-10): 8.8 h | growth rate μ (mean) ([1]; strain GLUT3-5): 0.310 h⁻¹ | lag time tlag (mean) ([1]; strain GLUT3-5): 12.0 h | growth rate μ (mean) ([1]; strain GLUT3-7): 0.326 h⁻¹ | lag time tlag (mean) ([1]; strain GLUT3-7): 11.7 h | growth rate μ (mean) ([1]; strain GLUT3-9): 0.257 h⁻¹ | lag time tlag (mean) ([1]; strain GLUT3-9): 14.5 h | growth rate μ (mean) ([1]; strain GLUT4-1): 0.414 h⁻¹ | lag time tlag (mean) ([1]; strain GLUT4-1): 11.7 h | growth rate μ (mean) ([1]; strain GLUT4-4): 0.339 h⁻¹ | lag time tlag (mean) ([1]; strain GLUT4-4): 13.4 h | growth rate μ (mean) ([1]; strain GLUT4-10): 0.328 h⁻¹ | lag time tlag (mean) ([1]; strain GLUT4-10): 13.5 h | growth rate μ (mean) ([1]; strain GLUT5-4): 0.398 h⁻¹ | lag time tlag (mean) ([1]; strain GLUT5-4): 15.2 h | growth rate μ (mean) ([1]; strain GLUT5-5): 0.368 h⁻¹ | lag time tlag (mean) ([1]; strain GLUT5-5): 11.4 h | growth rate μ (mean) ([1]; strain GLUT5-9): 0.438 h⁻¹ | lag time tlag (mean) ([1]; strain GLUT5-9): 22.5 h | growth rate μ (mean) ([1]; strain GLUT6-4): 0.360 h⁻¹ | lag time tlag (mean) ([1]; strain GLUT6-4): 11.3 h | growth rate μ (mean) ([1]; strain GLUT6-5): 0.420 h⁻¹ | lag time tlag (mean) ([1]; strain GLUT6-5): 10.6 h | growth rate μ (mean) ([1]; strain GLUT6-10): 0.502 h⁻¹ | lag time tlag (mean) ([1]; strain GLUT6-10): 10.5 h | growth rate μ (mean) ([1]; strain GLUT7-2): 0.441 h⁻¹ | lag time tlag (mean) ([1]; strain GLUT7-2): 10.6 h | growth rate μ (mean) ([1]; strain GLUT7-6): 0.293 h⁻¹ | lag time tlag (mean) ([1]; strain GLUT7-6): 13.7 h | growth rate μ (mean) ([1]; strain GLUT7-7): 0.239 h⁻¹ | lag time tlag (mean) ([1]; strain GLUT7-7): 8.5 h | growth rate μ (mean) ([1]; strain GLUT8-5): 0.372 h⁻¹ | lag time tlag (mean) ([1]; strain GLUT8-5): 17.3 h | growth rate μ (mean) ([1]; strain GLUT8-6): 0.236 h⁻¹ | lag time tlag (mean) ([1]; strain GLUT8-6): 10.3 h | growth rate μ (mean) ([1]; strain GLUT8-9): 0.224 h⁻¹ | lag time tlag (mean) ([1]; strain GLUT8-9): 12.0 h | growth rate μ (mean) ([1]; strain MG1655 (Table 26)): 0.248 h⁻¹ | lag time tlag (mean) ([1]; strain MG1655 (Table 26)): 13.4 h | growth rate μ (mean) ([1]; strain MG1655 (Table 27)): 0.257 h⁻¹ | lag time tlag (mean) ([1]; strain MG1655 (Table 27)): 13.0 h | μ (mean) ([2]; growth rate of K-12 MG1655, 10 g/L diacid (sodium salt)): 0.703 h^1 | μ (mean) ([2]; growth rate of K-12 MG1655, 20 g/L diacid (sodium salt)): 0.603 h^1 | μ (mean) ([2]; growth rate of K-12 MG1655, 30 g/L diacid (sodium salt)): 0.520 h^1 | μ (mean) ([2]; growth rate of K-12 MG1655, 40 g/L diacid (sodium salt)): 0.320 h^1 | μ (mean) ([2]; growth rate of K-12 MG1655, 50 g/L diacid (sodium salt)): 0.117 h^1 | tlag (mean) ([2]; lag time of K-12 MG1655, 10 g/L diacid (sodium salt)): 5.8 h | tlag (mean) ([2]; lag time of K-12 MG1655, 20 g/L diacid (sodium salt)): 7.0 h | tlag (mean) ([2]; lag time of K-12 MG1655, 30 g/L diacid (sodium salt)): 9.4 h | tlag (mean) ([2]; lag time of K-12 MG1655, 40 g/L diacid (sodium salt)): 14.1 h | tlag (mean) ([2]; lag time of K-12 MG1655, 50 g/L diacid (sodium salt)): 29.9 h
